Reference: patent publication US10973933B2, “Nanoparticles for diagnosis and treatment of tumors” (GWANGJU INSTITUTE OF SCIENCE AND TECHNOLOGY, priority 2015, dated 2021)

Tests used:
[1] = Photothermal properties of solutions under 808 nm NIR laser; settings: 1 W/cm^2, ICG 10 μg/ml
Protocol: 500 μl of each of the solutions was placed in a centrifuge tube and irradiated with an NIR laser beam at a power density of 1 W/cm^2 and temperature change of the solutions receiving the laser beam was measured in real time by an infrared (IR) thermal imaging system (FLIR SC-300, FLIR Systems Inc., Danderyd, Sweden).

[2] = tested on: SCC7 cells; assay: Intracellular singlet oxygen generation with H2DCF-DA probe; format: cell-based; settings: SCC7, after 808 nm laser irradiation
Protocol: Further, free ICG has photodynamic properties and can generate singlet oxygen (^1O2) when exposed to an 808 nm NIR laser beam. Generation of intracellular singlet oxygen (^1O2) was analyzed using 2′,7′-dichlorodihydrofluorescein diacetate (H2DCF-DA) dye as a reactive oxygen species (ROS) probe.

[3] = tested on: SCC7 tumor; assay: In vivo and ex vivo NIR fluorescence bio-distribution (IVIS); design: species or system mice
Protocol: The same group of mice was investigated as to NIR fluorescence signals by an in vivo imaging system (IVIS).
The free ICG solution (2 mg/kg) was injected into other mice as a control group for IVIS imaging. […] Gradual reduction of the signals means that free ICG molecules were quickly discharged from the bodies of the mice (FIG. 8b).
In-vivo bio-distribution of the PB-BSA-ICG nanoparticles and free ICG was analyzed by optical fluorescence imaging. […] Fluorescence signals in the mice subjected to injection of free ICG (2 mg/kg) were also recorded at time intervals similar to those set forth above.
The mice were sacrificed 24 hours after injection, and fluorescence signals (liver, lung, spleen, heart, and kidney) from resected tumors and major organs were measured.

[4] = tested on: SCC7 tumor; format: in vivo
Protocol: 24 hours after injection, tumor sites of all of the mice were irradiated with a continuous wave NIR laser beam (808 nm, 1 W/cm^2, 10 minutes) for phototherapy, and real-time temperature increase during laser irradiation was monitored by an IR thermal camera (FIGS. 10a and 10b).
In-vivo phototherapy: The tumor-xenograft mice were produced in the same manner as described above. The mice, in which tumors had grown to a desired volume (about 100 mm^3), were divided into four groups, that is, a saline solution group, a free ICG group, a PB-BSA nanoparticle group, and PB-BSA-ICG nanoparticle group. According to the groups, each sample was injected into a vein of the corresponding mouse (administration of 2 mg/kg of ICG, administration of 20 mg/kg of PB).
24 hours after injection, the tumor of each of the mice was exposed to an 808 nm NIR laser beam (1 W/cm^2) for 10 minutes, real-time temperature change of the tumor region during laser treatment was monitored by an IR thermal imaging system. The size of the tumor after treatment was measured at a specific time point using a digital caliper.

[5] = tested on: SCC7 cells; assay: In vitro laser induced phototherapy, cell viability; format: cell-based; settings: Mus musculus, SCC-7, light or radiation study, 5 min, 808 nm, 1 W/cm^2, 5 minutes, PB 80 μg/ml, ICG 10 μg/ml, read-out: cell viability after NIR laser irradiation
Protocol: (§1) Next, the cells were completely cleaned and fresh medium was added to each of the wells. Next, the cells were irradiated with an 808 nm NIR laser beam for 5 minutes.
(§2) After laser irradiation, the cells were further cultured for 12 hours, and cell viability was measured by WST-1 analysis.

[6] = as above; format: cell-based; settings: mouse, SCC7 cells, PB 80 μg/ml, ICG 10 μg/ml, read-out: cell viability without laser treatment
Protocol: as §1, §2

[7] = repeated laser irradiation, 3 minutes per cycle
[8] = 808 nm, 1 W/cm^2, 10 minutes, 24 hours after injection

With CC1(C)C(/C=C/C=C/C=C/C=C2\N(CCCCS(=O)(=O)O)c3ccc4ccccc4c3C2(C)C)=[N+](CCCCS(=O)(=O)[O-])c2ccc3ccccc3c21 [free ICG, Indocyanine green] the temperature increase ([1]; laser irradiation for 5 minutes, 808 nm, PB 80 μg/ml) was 10 °C, the “temperature increase, first cycle” value [1, 7] was “about 10 °C” and the “temperature increase, second cycle” value [1, 7] was “about 6 °C”. The “temperature increase, third cycle” value [1, 7] was 2.5 °C, the “intracellular ^1O2 generation (green fluorescence of H2DCF-DA)” value [2] was “intracellular green fluorescence signals were observed” and the “in vivo NIR fluorescence signal distribution” value ([3]; 3 hours after injection, 2 mg/kg) was “strong signals at liver sites”. For the same molecule, the “ex vivo fluorescence signals of livers” value ([3]; 24 hours after injection) was “significantly high fluorescence signals”, the “ex vivo fluorescence signals of tumors” value ([3]; 24 hours after injection) was “low signals” and the “average temperature increase of tumor” value [4, 8] was “about 6 °C”. The final tumor temperature [4, 8] was 42 °C, the “tumor response after laser treatment” value ([4]; monitored for 14 days, ICG 2 mg/kg, PB 20 mg/kg) was “did not exhibit meaningful tumor regression” and the viability at 10 µg/mL [5] was 55%. For the same molecule, the viability at 24 h, 10 μg/ml [6] was ~100%.
